21 compounds from patent US9193736B2, “PDE 10a inhibitors for the treatment of type II diabetes” (Janssen Pharmaceutica, NV, priority 2013, dated 2015) can be followed below.

Molecules are shown by their SMILES. Where a name gives a salt, the structure may show the parent alone. Where only a bound is given, the exact number is not on record here.

Assay [1] deals with Human recombinant PDE10A2 (Homo sapiens (Human), UniProt Q9Y233). Nature of the assay: In vitro hPDE10a: human recombinant PDE10A2 scintillation proximity assay, IC50. Type of assay: biochemical. Particulars: human recombinant PDE10A2, SPA, 60 nM cAMP; read-out: hPDE10a2 IC50. The procedure, abridged: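 Purified recombinant human PDE10A2 (Ni-sepharose) was assayed by SPA, counting [3H]-AMP product captured on yttrium silicate beads added in zinc sulphate stop solution. Inhibition was expressed as % of activity without compound, with a no-enzyme low control. Repeat data points were aggregated.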
(In general: SPA uses beads or plates that emit light when radiolabelled molecules are held near them.)

Assay [2] deals with Rat recombinant PDE10a (rPDE10a) (Rattus norvegicus (Rat), UniProt Q9QYJ6). The experiment in a line: In vitro assay PDE10a: rat recombinant PDE10a SPA with 3H-cAMP substrate, IC50. To be noted: 60 nM cAMP, read-out: rPDE10a2 IC50. Type of assay: biochemical. The essentials:
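Enzyme expressed in Sf9 cells via baculovirus and Ni-sepharose purified; reaction with 3H-cAMP ran 60 min at rt, stopped with PDE SPA beads. Compounds diluted in DMSO at 100-fold final concentration; blanks omitted enzyme.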

Sequence of Rat recombinant PDE10a (rPDE10a) (Q9QYJ6 whole entry): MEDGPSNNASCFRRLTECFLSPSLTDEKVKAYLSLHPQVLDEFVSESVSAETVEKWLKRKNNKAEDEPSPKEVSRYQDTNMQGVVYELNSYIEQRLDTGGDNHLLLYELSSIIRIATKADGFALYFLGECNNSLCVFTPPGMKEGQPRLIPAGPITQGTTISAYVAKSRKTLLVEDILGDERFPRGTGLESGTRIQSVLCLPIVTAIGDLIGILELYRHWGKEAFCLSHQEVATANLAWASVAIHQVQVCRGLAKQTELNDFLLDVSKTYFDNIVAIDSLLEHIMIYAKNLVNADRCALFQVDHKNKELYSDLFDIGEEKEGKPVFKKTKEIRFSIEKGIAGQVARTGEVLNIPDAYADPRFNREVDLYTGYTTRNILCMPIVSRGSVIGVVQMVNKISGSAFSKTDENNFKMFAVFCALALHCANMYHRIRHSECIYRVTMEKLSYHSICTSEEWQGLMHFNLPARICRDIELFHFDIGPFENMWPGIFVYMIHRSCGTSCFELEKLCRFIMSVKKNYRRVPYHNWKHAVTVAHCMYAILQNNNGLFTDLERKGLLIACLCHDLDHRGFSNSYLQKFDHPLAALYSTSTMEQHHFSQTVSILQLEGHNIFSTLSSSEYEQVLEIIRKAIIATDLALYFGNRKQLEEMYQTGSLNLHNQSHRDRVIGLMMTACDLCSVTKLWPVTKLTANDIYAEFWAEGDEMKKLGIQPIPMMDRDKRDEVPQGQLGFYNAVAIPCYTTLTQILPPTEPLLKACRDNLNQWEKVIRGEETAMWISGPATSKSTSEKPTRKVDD
Sequence of Human recombinant PDE10A2 (Q9Y233 267-1055): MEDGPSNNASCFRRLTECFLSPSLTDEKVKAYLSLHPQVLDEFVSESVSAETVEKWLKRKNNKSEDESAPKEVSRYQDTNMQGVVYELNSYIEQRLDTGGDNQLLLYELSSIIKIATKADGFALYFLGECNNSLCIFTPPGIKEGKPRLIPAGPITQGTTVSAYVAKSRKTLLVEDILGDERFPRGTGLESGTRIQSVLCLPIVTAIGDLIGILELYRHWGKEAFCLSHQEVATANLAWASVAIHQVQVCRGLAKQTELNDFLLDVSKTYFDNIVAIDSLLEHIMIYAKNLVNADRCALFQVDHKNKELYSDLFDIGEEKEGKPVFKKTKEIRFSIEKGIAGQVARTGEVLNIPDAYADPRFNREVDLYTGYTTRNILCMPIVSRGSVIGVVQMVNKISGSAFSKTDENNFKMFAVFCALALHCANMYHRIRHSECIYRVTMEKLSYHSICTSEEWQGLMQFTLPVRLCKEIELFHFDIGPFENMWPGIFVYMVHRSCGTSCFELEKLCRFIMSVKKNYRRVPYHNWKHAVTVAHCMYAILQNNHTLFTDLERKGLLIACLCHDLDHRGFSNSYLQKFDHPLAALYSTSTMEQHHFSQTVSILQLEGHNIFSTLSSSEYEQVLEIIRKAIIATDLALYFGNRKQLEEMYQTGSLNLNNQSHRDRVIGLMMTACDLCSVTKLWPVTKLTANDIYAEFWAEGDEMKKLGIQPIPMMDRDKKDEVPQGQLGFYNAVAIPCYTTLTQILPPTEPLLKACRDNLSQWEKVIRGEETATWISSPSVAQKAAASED

A word on the IC50: it is the midpoint of a concentration-inhibition curve. As to `O=c1ncn(-c2ccc(-c3c(/C=C/c4ccc5ccccc5n4)nc4c(N5CCOCC5)ccnn34)cn2)[nH]1` [Cpd 56, (E)-1-(5-(8-Morpholino-2-(2-(quinolin-2-yl)vinyl)imidazo[1,2-b]pyridazin-3-yl)pyridin-2-yl)-1,2-dihydro-1,2,4-triazol-3-one trifluoroacetic acid salt], the concentration for half-maximal inhibition (IC50) in assay [1] is 4 nM; in assay [2], 7 nM.
For the compound `O=C(O)c1ccc(-c2c(CCc3ccc4ccccc4n3)nc3c(N4CCOCC4)ccnn23)cc1O` [compound 64, 2-Hydroxy-4-(8-morpholino-2-(2-(quinolin-2-yl)ethyl)imidazo[1,2-b]pyridazin-3-yl)benzoic acid], the IC50 came out at 1 nM in assay [1] and 2 nM in assay [2].
On to `c1cncc(-c2c(COc3ccc4ccccc4n3)nc3c(N4CCOCC4)ccnn23)c1` [Cpd 2, 4-(3-(pyridin-3-yl)-2-((quinolin-2-yloxy)methyl)imidazo[1,2-b]pyridazin-8-yl)morpholine], for which the figures for the concentration for half-maximal inhibition (IC50) in assay [1] and in assay [2] were 245 nM and 141 nM, respectively.
Regarding `COc1cc(-c2c(C#Cc3ccc4ccccc4n3)nc3c(N4CCOCC4)ccnn23)ccc1C(=O)O` [compound 91, 2-Methoxy-4-(8-morpholino-2-(quinolin-2-ylethynyl)imidazo[1,2-b]pyridazin-3-yl)benzoic acid], the IC50 in assay [1] and in assay [2] was below 1 nM each time.
Consider `O=C(O)c1cc(/C=C/c2cn3nc(Cl)cc(N4CCOCC4)c3n2)nc2ccccc12` [Cpd 126, 2-[(E)-2-(6-Chloro-8-morpholin-4-ylimidazo[1,2-b]pyridazin-2-yl)ethenyl]quinoline-4-carboxylic acid], for which the figures for the IC50 in assay [1] and in assay [2] were 2 nM and 1 nM, respectively.
Consider `O=C(O)c1ccc(-c2c(C#Cc3ccccn3)nc3c(N4CCOCC4)ccnn23)cc1` [Cpd 86, 4-(8-Morpholino-2-(pyridin-2-ylethynyl)imidazo[1,2-b]pyridazin-3-yl)benzoic acid], for which the IC50 in assay [1] and in assay [2] was 2 nM in each case.
Regarding `c1ccc2nc(CCc3nc4c(N5CCOCC5)ccnn4c3-c3ccc(N4CCNCC4)nc3)ccc2c1` [Cpd 13, 4-(3-(6-(piperazin-1-yl)pyridin-3-yl)-2-(2-(quinolin-2-yl)ethyl)imidazo[1,2-b]pyridazin-8-yl)morpholine trifluoroacetic acid salt], the half-maximal inhibitory concentration (IC50) in assay [1] came out at 20 nM; in assay [2] it was 14 nM.
Turning to `c1ccc2nc(CCc3nc4c(N5CCOCC5)ccnn4c3-c3ccc(-c4nnn[nH]4)nc3)ccc2c1` [Cpd 31, 4-(3-(6-(1H-Tetrazol-5-yl)pyridin-3-yl)-2-(2-(quinolin-2-yl)ethyl)imidazo[1,2-b]pyridazin-8-yl)morpholine trifluoroacetic acid salt], the IC50 was 1 nM in assay [1] and below 1 nM in assay [2].
Consider `O=C(O)c1ccc(-c2c(CCc3ccc4ccccc4n3)nc3c(N4CCOCC4)ccnn23)o1` [compound 60, 5-(8-Morpholino-2-(2-(quinolin-2-yl)ethyl)imidazo[1,2-b]pyridazin-3-yl)furan-2-carboxylic acid], for which the IC50 in assay [1] and in assay [2] was below 1 nM each time.
`O=C(O)c1cc2ccccc2nc1/C=C/c1cn2nc(Cl)cc(N3CCOCC3)c2n1` [Cpd 143, 2-[(E)-2-(6-Chloro-8-morpholin-4-ylimidazo[1,2-b]pyridazin-2-yl)ethenyl]quinoline-3-carboxylic acid]: the results for the IC50 in assay [1] and in assay [2] were 1 nM and below 1 nM, respectively.
`CS(=O)(=O)NC(=O)c1cccc2nc(/C=C/c3nc4c(N5CCOCC5)cc(Cl)nn4c3-c3cccnc3)ccc12` [Cpd 141, (E)-2-(2-(6-Chloro-8-morpholino-3-(pyridin-3-yl)imidazo[1,2-b]pyridazin-2-yl)vinyl)-N-(methylsulfonyl)quinoline-5-carboxamide]: the IC50 in assay [1] was 58 nM; in assay [2], 23 nM.
Turning to `COc1cccc(-c2c(/C=C/c3ccc4c(C(=O)NS(C)(=O)=O)cccc4n3)nc3c(N4CCOCC4)ccnn23)c1` [Cpd 150, (E)-2-(2-(3-(3-Methoxyphenyl)-8-morpholinoimidazo[1,2-b]pyridazin-2-yl)vinyl)-N-(methylsulfonyl)quinoline-5-carboxamide], the 50% inhibitory concentration (IC50) in assay [1] and in assay [2] was 6 nM throughout.
Regarding `Nc1ccc(-c2c(/C=C/c3ccc4ccccc4n3)nc3c(N4CCOCC4)ccnn23)cn1` [Cpd 18, (E)-5-(8-Morpholino-2-(2-(quinolin-2-yl)vinyl)imidazo[1,2-b]pyridazin-3-yl)pyridin-2-amine], the IC50 in assay [1] was found to be 6 nM; in assay [2], 3 nM.
For `O=c1[nH]c(-c2ccc(-c3c(COc4ccc5ccccc5n4)nc4c(N5CCOCC5)ccnn34)cn2)no1` [Cpd 35, 3-(5-(8-Morpholino-2-((quinolin-2-yloxy)methyl)imidazo[1,2-b]pyridazin-3-yl)pyridin-2-yl)-1,2,4-oxadiazol-5(4H)-one], the IC50 in assay [1] was determined as 5 nM; in assay [2] it was 7 nM.
In the same order, the values of `O=C(NO)c1cccc2nc(/C=C/c3cn4nccc(N5CCOCC5)c4n3)ccc12` [Cpd 118, N-Hydroxy-2-[(E)-2-(8-morpholin-4-ylimidazo[1,2-b]pyridazin-2-yl)ethenyl]quinoline-5-carboxamide] are below 1 nM and 1 nM.
The like results for `O=C(O)c1cccc2nc(/C=C/c3nc4c(N5CCOCC5)ccnn4c3-c3cccnc3)ccc12` [Cpd 137, (E)-2-(2-(8-Morpholino-3-(pyridin-3-yl)imidazo[1,2-b]pyridazin-2-yl)vinyl)quinoline-5-carboxylic acid sodium salt] were, in that order, 3 nM and 1 nM.
Regarding `CN1CC=C(c2ccc(-c3c(COc4ccc5ccccc5n4)nc4c(N5CCOCC5)ccnn34)cn2)CC1` [Cpd 10, 4-(3-(1′-methyl-1′,2′,3′,6′-tetrahydro-[2,4′-bipyridin]-5-yl)-2-((quinolin-2-yloxy)methyl)imidazo[1,2-b]pyridazin-8-yl)morpholine], the IC50 in assay [1] turned out to be 43 nM; in assay [2], 17 nM.
As for `O=C(O)CCC(=O)Nc1ccc(-c2c(CCc3ccc4ccccc4n3)nc3c(N4CCOCC4)ccnn23)cc1` [compound 49, 4-((4-(8-Morpholino-2-(2-(quinolin-2-yl)ethyl)imidazo[1,2-b]pyridazin-3-yl)phenyl)amino)-4-oxobutanoic acid], the IC50 in assay [1] and in assay [2] was 4 nM throughout.
Take `CN(C)c1ccc(-c2c(COc3ccc4ccccc4n3)nc3c(N4CCOCC4)ccnn23)cn1` [Cpd 5, N,N-dimethyl-5-(8-morpholino-2-((quinolin-2-yloxy)methyl)imidazo[1,2-b]pyridazin-3-yl)pyridin-2-amine methane sulfonic acid]: the IC50 was determined as 126 nM in assay [1] and 457 nM in assay [2].
For `CN1CCN(c2ccc(-c3c(CN(C)c4ccc5ccccc5n4)nc4c(N5CCOCC5)ccnn34)cn2)CC1` [Cpd 15, N-Methyl-N-((3-(6-(4-methylpiperazin-1-yl)pyridin-3-yl)-8-morpholinoimidazo[1,2-b]pyridazin-2-yl)methyl)quinolin-2-amine trifluoroacetic acid salt], the half-inhibitory concentration (IC50) came to 676 nM in assay [1] and 269 nM in assay [2].
Consider `O=C(O)c1ccc(-c2c(C#Cc3cccc(C(F)(F)F)n3)nc3c(N4CCOCC4)ccnn23)cc1` [Cpd 111, 4-(8-Morpholino-2-((6-(trifluoromethyl)pyridin-2-yl)ethynyl)imidazo[1,2-b]pyridazin-3-yl)benzoic acid], for which the IC50 in assay [1] was around 18 nM; in assay [2], 17 nM.
